The assay deals with T1, P-selectin/PSGL-1 interaction (Homo sapiens, UniProt P16109).
T1 construct: comprised of the lectin and epidermal growth factor-like (EGF) domains expressed in CHO cells; made in house; host or cells: CHO cells (P-LE)
T1 sequence (P16109 42-198): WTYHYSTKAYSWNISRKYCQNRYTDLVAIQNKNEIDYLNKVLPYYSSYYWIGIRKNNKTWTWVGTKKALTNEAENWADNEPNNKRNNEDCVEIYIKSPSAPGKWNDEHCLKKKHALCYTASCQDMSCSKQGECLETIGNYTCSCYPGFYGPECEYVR
As to the kind of experiment: Biacore P-selectin/PSGL-1 inhibition assay (surface plasmon resonance). As to conditions: for inhibition at 250 µM: 250 uM test compound, 500 nM P.LE, immobilized biotinylated PSGL-1 19ek, 10% DMSO, pH 7.4, 25° C. Format: binding. On the procedure: Surface plasmon resonance assays were performed on a Biacore 3000 instrument (Biacore Inc. Piscataway, N.J.) at 25° C. at a flow rate of 30 μL/minute and each assay consisted of a 60-second equilibration, a 60-μL sample injection (kinject), and a 300-second dissociation.
A purified, monomeric, truncated form of human PSGL-1, “19ek”, that contained all the necessary P-selectin binding determinants (see Goetz, et al., J Cell Biol., 1997, 137: 509-519; and Sako, et al., Cell, 1995, 83: 323-331) was biotinylated via amine chemistry (Sulfo-NHS-LC-Biotin, Peirce) at a unique C-terminal lysine residue (see Somers, et al., Cell, 2000, 103: 467-479) and immobilized on a Biacore SA sensor chip (Biacore Inc.), using an HBS-EP buffer (Biacore Inc.), and the target 600-700 RU. The coated chip was re-equilibrated with an HBS-P buffer (Biacore Inc.) to which 1 mM CaCl2 and 1 mM MgCl2 (both from Fisher) were added to ensure sufficient calcium for the calcium-dependent interaction between the receptor and the ligand.
Test compounds were incubated for 1 hour in a 1.1× Biacore assay buffer. Each solution was centrifuged through a 0.2 μm filter, using a 96-well plate format (Millipore). Glycyrrhizin tri-sodium salt (TCl) was prepared as a positive control in parallel with the test compounds, in the same manner described above.
A soluble recombinant truncated form of human P-selectin, P-LE, comprised of the lectin and epidermal growth factor-like (EGF) domains expressed in CHO cells (see Somers, et al., Cell, 2000, 103: 467-479) was added to each filtered test compound solution. Final concentrations of reagents were 500 nM P.LE, 250 or 500 μM test compound (depending on structure) or 1 mM glycyrrhizin, 10% DMSO, and 1× Biacore buffer ([…], 150 mM NaCl, 1 mM CaCl2, and 1 mM MgCl2 (all reagents from Fisher)), with a pH of 7.4. Compounds active at 250 μM were titrated to further define activity. Test samples were supplied to the Biacore instrument in a 96-well plate.
The Biacore raw data file was exported as a text file to an Excel spreadsheet, where the buffer blanks bracketing the samples were averaged for each Biacore instrument flow cell (Fc), and subtracted from the averaged uninhibited P.LE samples and from all the other samples. The reference signal from Fc1 (uncoated) was then subtracted from its corresponding active (coated) signal for each injection, a process known as double referencing (see Myszka, J Mol. Recognit., 1999, 12(5): 279-284). The percent inhibition of binding was calculated by dividing the reference-subtracted inhibited signal by the reference-subtracted uninhibited signal, subtracting this value from 1, and multiplying the resulting value by 100. The replicate percent inhibition values were averaged and expressed as the mean±standard deviation. The inter-experiment standard deviation of calculated percent inhibitions in the Biacore assay was ±5.

On to `CC1(C)[C@@H](O[C@H]2O[C@H](C(=O)O)[C@@H](O)[C@H](O)[C@H]2O[C@@H]2O[C@H](C(=O)O)[C@@H](O)[C@H](O)[C@H]2O)CC[C@]2(C)[C@H]3C(=O)C=C4[C@@H]5C[C@@](C)(C(=O)O)CC[C@]5(C)CC[C@@]4(C)[C@]3(C)CC[C@@H]12` [Glycyrrhizin, reference compound], for which the IC50 (positive control in the Biacore assay) came to 1000 µM.

`CC(C)c1cccc2c(C(=O)O)c(O)c(C3Cc4ccccc4C3)nc12` [Compound 4, 3-hydroxy-2-indan-2-yl-8-isopropyl-quinolin-4-carboxylicacid] yielded an inhibition at 250 µM of 48%.

`Cc1ccc2c(C(=O)O)c(O)c(C3Cc4ccccc4C3)nc2c1C` [Compound 3, 3-hydroxy-2-indan-2-yl-7,8-dimethyl-quinolin-4-carboxylicacid] yielded an inhibition at 250 µM of 11%.

`O=C(O)c1c(O)c(C2Cc3ccccc32)nc2c(C(F)(F)F)cccc12` (stereo not drawn) [Compound 1, 2-(1,2-dihydrocyclobutabenzen-1-yl)-3-hydroxy-8-(trifluoro-methyl)quinoline-4-carboxylic acid] had an inhibition at 250 µM of 45%.

`Cc1ccc2c(C(=O)O)c(O)c(C3Cc4ccccc43)nc2c1C` (stereo not drawn) [Compound 2, 2-(1,2-dihydrocyclobutabenzen-1-yl)-3-hydroxy-7,8-dimethyl-quinolin-4-carboxylic acid] gave an inhibition at 250 µM of 17%.

Consider `O=C(O)c1c(O)c(C2Cc3ccccc3C2)nc2c(C(F)(F)F)cccc12` [Compound 5, 3-hydroxy-2-indan-2-yl-8-trifluoromethyl-quinoline-4-carboxylic acid], for which the inhibition at 250 µM amounted to 35%.

Usually IC50 stands for the midpoint of a concentration-inhibition curve. In general, inhibition refers to how much of the control response was suppressed. Low readings indicate a weak effect, high ones a strong effect.
